The numbers were not newly measured in US20070298107A1, “Pharmaceutical Compositions of Mirtazapine” (AUROBINDO PHARMA LTD., priority 2003, published 2007), which cites them from elsewhere.

The conditions of this data set: background statement.

Turning to `CN1CCN2c3ncccc3Cc3ccccc3C2C1` (stereo not shown) [Mirtazapine], the solubility in water entry is reported as “essentially insoluble”.
